# Measurements: patent publication US5789431A, “Naphthoquinone antitumor compound and method” (The University of North Carolina at Chapel Hill, priority 1996, dated 1998)
# Key:
# ACHN = assay: in vitro renal cancer cell growth inhibition (NCI screen)
# HOP-92 = assay: in vitro non-small cell lung cancer cell growth inhibition (NCI screen)
# MALME-3M = assay: in vitro melanoma cell growth inhibition (NCI screen)
# M19-MEL = assay: as above
# SK-MEL-5 = assay: as above
# NCI-H23 = assay: in vitro non-small cell lung cancer cell growth inhibition (NCI screen)
# OVCAR-3 = assay: in vitro ovarian cancer cell growth inhibition (NCI screen)
# HCT-15 = assay: in vitro colon cancer cell growth inhibition (NCI screen)
# LXFL 529 = assay: in vitro non-small cell lung cancer cell growth inhibition (NCI screen)
# NCI-H460 = assay: as above
# DLD-1 = assay: in vitro colon cancer cell growth inhibition (NCI screen)
# SF-539 = assay: in vitro CNS cancer cell growth inhibition (NCI screen)
# LOX1MVI = assay: in vitro melanoma cell growth inhibition (NCI screen)
# U 251 = assay: in vitro CNS cancer cell growth inhibition (NCI screen)
# HT 29 = assay: in vitro colon cancer cell growth inhibition (NCI screen)
# HCT-116 = assay: as above
# UACC-62 = assay: in vitro melanoma cell growth inhibition (NCI screen)
# K-562 = assay: in vitro leukemia cell growth inhibition (NCI screen)
# HL-60(TB) = assay: as above
# SF-268 = assay: in vitro CNS cancer cell growth inhibition (NCI screen)
# UACC-257 = assay: in vitro melanoma cell growth inhibition (NCI screen)
# CCRF-CEM = assay: in vitro leukemia cell growth inhibition (NCI screen)
# RXF-393 = assay: in vitro renal cancer cell growth inhibition (NCI screen)
# MOLT-4 = assay: in vitro leukemia cell growth inhibition (NCI screen)
# SR = assay: as above
# COLO-205 = assay: in vitro colon cancer cell growth inhibition (NCI screen)
# human tumor cell lines = format: cell-based; details: cancer cell line panel
# OVCAR-4 = assay: in vitro ovarian cancer cell growth inhibition (NCI screen); details: OVACR-4
# IGROV1 = assay: as above
# M14 = assay: in vitro melanoma cell growth inhibition (NCI screen)
# NCI-H522 = assay: in vitro non-small cell lung cancer cell growth inhibition (NCI screen)
# SK-MEL-2 = assay: in vitro melanoma cell growth inhibition (NCI screen)
# SW 620 = assay: in vitro colon cancer cell growth inhibition (NCI screen)
SMILES,cytotoxicity log GI50 (HOP-92),cytotoxicity log GI50 (MALME-3M),cytotoxicity log GI50 (M19-MEL),cytotoxicity log GI50 (SK-MEL-5),cytotoxicity log GI50 (NCI-H23),cytotoxicity log GI50 (OVCAR-3),cytotoxicity log GI50 (HCT-15),cytotoxicity log GI50 (LXFL 529),cytotoxicity log GI50 (NCI-H460),cytotoxicity log GI50 (DLD-1),cytotoxicity log GI50 (SF-539),cytotoxicity log GI50 (LOX1MVI),cytotoxicity log GI50 (HCT-116),cytotoxicity log GI50 (UACC-62),cytotoxicity log GI50 (K-562),cytotoxicity log GI50 (HL-60(TB)),also measured
CC(=O)NC1=C(NCCC(C)C)C(=O)c2ccccc2C1=O [Compound 35],,,,,,,,,,,,,,,,,cytotoxicity log GI50 (ACHN): -7.52 M
CCC(CC)NC1=C(NC(C)=O)C(=O)c2ccccc2C1=O [Compound 34],-6.47 M,,,,,,,,,,,,,,,,
CCC(C)CNC1=C(NC(C)=O)C(=O)c2ccccc2C1=O (centres unmarked) [Compound 37],,-4.45 M,-4.68 M,-4.50 M,-4.17 M,-4.25 M,,,,,,,,,,,
CCCC(C)n1c(C)nc2c1C(=O)c1ccccc1C2=O (centres unmarked) [Compound 9],-4.78 M,,-4.90 M,-4.88 M,-4.81 M,,-5.22 M,-4.90 M,-5.34 M,-5.07 M,-4.89 M,-5.06 M,-5.26 M,-5.17 M,-5.07 M,,cytotoxicity log GI50 (U 251): -4.91 M; cytotoxicity log GI50 (HT 29): -4.76 M
CCC(C)n1c(C)nc2c1C(=O)c1ccccc1C2=O (centres unmarked) [Compound 6],-4.66 M,-4.49 M,-4.74 M,-4.57 M,-4.48 M,-4.49 M,-4.57 M,-4.48 M,-4.71 M,-4.57 M,-4.49 M,-4.64 M,-4.50 M,-4.55 M,-4.47 M,-4.84 M,cytotoxicity log GI50 (SF-268): -4.51 M; cytotoxicity log GI50 (UACC-257): -4.55 M; cytotoxicity log GI50 (CCRF-CEM): -4.43 M; cytotoxicity log GI50 (RXF-393): -4.57 M; cytotoxicity log GI50 (MOLT-4): -4.55 M
Cc1nc2c(n1CCC(C)C)C(=O)c1ccccc1C2=O [Compound 11],,,-4.84 M,-4.84 M,,,-4.93 M,-4.88 M,-5.22 M,-4.95 M,-4.92 M,-4.83 M,-5.17 M,-4.91 M,-5.09 M,-5.22 M,cytotoxicity log GI50 (SR): -5.33 M; cytotoxicity log GI50 (SF-268): -4.84 M; cytotoxicity log GI50 (CCRF-CEM): -4.87 M; cytotoxicity log GI50 (U 251): -4.90 M; cytotoxicity log GI50 (COLO-205): -4.84 M; cytotoxicity log GI50 (MOLT-4): -5.08 M
CCC(C)Cn1c(C)nc2c1C(=O)c1ccccc1C2=O (centres unmarked) [Compound 13],-4.69 M,,-4.74 M,-4.82 M,-4.68 M,,-4.76 M,-4.77 M,-4.83 M,,-4.75 M,-4.71 M,,-5.00 M,-5.27 M,-5.30 M,cytotoxicity log GI50 (SR): -5.55 M; cytotoxicity log GI50 (COLO-205): -4.70 M; cytotoxicity log GI50 (MOLT-4): -5.54 M
Cc1nc2c(n1CCO)C(=O)c1ccccc1C2=O [Compound 16],,-4.93 M,-5.59 M,-4.95 M,-4.82 M,-4.61 M,,,,,,-4.63 M,-4.72 M,-4.78 M,-4.59 M,-4.70 M,cytotoxicity log GI50 (SR): -4.58 M; cytotoxicity against tumor cells (in words) (human tumor cell lines): comparable to those of compounds 6-14; cytotoxicity log GI50 (OVCAR-4): -4.58 M; cytotoxicity log GI50 (IGROV1): -4.69 M; cytotoxicity log GI50 (M14): -4.67 M; cytotoxicity log GI50 (NCI-H522): -4.84 M; cytotoxicity log GI50 (UACC-257): -4.78 M; cytotoxicity log GI50 (ACHN): -4.60 M; cytotoxicity log GI50 (COLO-205): -4.72 M; cytotoxicity log GI50 (SK-MEL-2): -4.74 M
CCCC(C)NC1=C(NC(C)=O)C(=O)c2ccccc2C1=O (centres unmarked) [Compound 33],-4.32 M,-4.44 M,-4.20 M,-4.13 M,,,,,,,,,,,,,cytotoxicity log GI50 (NCI-H522): -4.19 M
O=C1c2ccccc2C(=O)c2[nH]c(Cc3ccc(F)cc3)nc21 [Compound 4c],,-4.84 M,,,,-5.27 M,-5.19 M,,,-5.40 M,,,,,,,cytotoxicity log GI50 (SW 620): -4.84 M; cytotoxicity log GI50 (OVCAR-4): -4.83 M; cytotoxicity log GI50 (IGROV1): -4.90 M; cytotoxicity log GI50 (M14): -4.82 M; cytotoxicity log GI50 (ACHN): -4.85 M; cytotoxicity log GI50 (RXF-393): -5.16 M; cytotoxicity log GI50 (SK-MEL-2): -4.86 M
Cc1nc2c(n1CC(C)(C)C)C(=O)c1ccccc1C2=O [Compound 14],-4.78 M,,,-4.37 M,,-4.18 M,,,-4.23 M,,,-4.25 M,,,-4.25 M,-4.44 M,
